Data on four compounds can be found in patent US20190038556A1, “FORMULATIONS AND CARRIER SYSTEMS INCLUDING COMPOUND INTERACTIVE DOMAINS” (University of Pittsburgh - Of The Commonwealth System of …, priority 2012, published 2019).

A short description of series [1]: Solubilization of tested agents with multi-chain PEGylated micelle-forming surfactants (Table 1). From the text: The exact mechanism for the protection of ECGC against oxygen in the form of complex is unknown.
A short description of series [2]: Oxidation of ECGC in PBS on exposure to air. It counts as physicochemical. Particulars: exposed to air, free 24 hrs, complex over a week.
The nature of series [3]: Particle size measurement by laser dynamic light scattering. It counts as physicochemical. Particulars: agent formulated with multi-chain PEGylated micelle-forming surfactant. The procedure: 1(f). Particle size measurement. […] Samples were further diluted ten times in distilled water and sizes were measured by laser dynamic light scattering using a particle sizer (Zetasizer Nano ZS instrument, available from Malvern Instruments Ltd of Worcestershire, United Kingdom). Size measurement of emulsion particles were conducted using a Coulter N4 particle sizer after a 100-fold dilution in saline.

Series [4] has as its system 4T1.2 mouse metastatic breast cancer cell line. The experiment in a line: In vitro cytotoxicity (MTT), 4T1.2. Particulars: 4T1.2, 72 h, FIG. 14A. It counts as cell-based. As to the method:
(§1) The tumor-inhibitory efficacy of PEG-Fmoc/PTX was also investigated both in vitro and in vivo. In vitro cytotoxicity of PEG-Fmoc/PTX was evaluated in mouse metastatic breast cancer cell line 4T1.2, and two human prostate cancer cell lines, PC-3 and DU145. […] Without limitation to any mechanism, the increased cytotoxicity of PEG-Fmoc/PTX may, for example, be attributable to facilitated entry of PTX into tumor cells.
(§2) 2(b)(viii). In Vitro Cytotoxicity. Mouse metastatic breast cancer cell line 4T1.2, and two human prostate cancer cell lines PC-3 and DU145 were utilized to evaluate the in vitro cytotoxicity of PTX/PEG-Fmoc2. Cells were seeded in 96-well plates at 1000 (4T1.2), 2000 (DU145) and 3000 (PC-3) cells per well. […] Seventy-two h later, 20 μL of 3-(4,5-dimethylthiazol-2-yl)-2,5-diphenyltetrazoliumbromide (MTT, 5 mg/mL) was added into each well. Following incubation for 4 h, the medium was removed and 150 μL of DMSO was added to each well to solubilize the formazan crystal. The absorbance of each well was detected at 550 nm with a reference wavelength at 630 nm using a microplate reader, and cell viability was calculated based on the formula below. Untreated cells were included as a control.
(§3) % cytotoxicity=[1−(ODtreat−ODblank)/(ODcontrol−ODblank)]×100%

For series [5], the system named is PC-3 human prostate cancer cell line. Kind of series: In vitro cytotoxicity (MTT), PC-3. It counts as cell-based. Particulars: PC-3, 72 h, FIG. 14B. As to the method:
as §1, §2, §3

Series [6] is described as follows: CMC measurement with pyrene as a fluorescence probe. It counts as physicochemical. As to the method: (§4) The size distribution of PTX/PEG-Fmoc2 mixed nanomicelles was examined by dynamic light scattering (DLS) via a Malvern Zeta Nanosizer, and the morphology was observed by transmission electron microscopy (TEM) after negative staining. The CMC measurement was performed as reported before with pyrene as a fluorescence probe. To quantify PTX in the micelles, PTX was extracted by methanol, and detected by Waters Alliance 2695-2998 high-performance liquid chromatography (HPLC) system with a RP-18 column (250 mm×4.6 mm) equipped with a UV detector at 227 nm at room temperature. A mixture of methanol/water (80:20, v/v) was used as mobile phase at a flow rate at 0.8 mL/min. The drug loading capacity (DLC) and efficiency (DLE) were calculated as set forth above.

Series [7] relates to DU145 human prostate cancer cell line. The experiment in a line: In vitro cytotoxicity (MTT), DU145. The class given is cell-based. The following applies: DU145, 72 h, FIG. 14C. The procedure:
as §1, §2, §3

A short description of series [8]: Size distribution of PTX/PEG-Fmoc2 mixed nanomicelles (DLS). It counts as physicochemical. The procedure:
2(b)(iv). Preparation and biophysical characterization of PTX/PEG-Fmoc2 mixed micelles. Thin-film hydration method was utilized for preparation of PTX/PEG-Fmoc2 mixed nanomicelles. PEG-Fmoc2 and PTX in chloroform were well mixed in a glass tube at designated molar ratios. A thin film of carrier/drug mixture was generated through removal of the organic solvent by a gentle stream of nitrogen. The trace amount of solvent was further removed via vacuum for 2 h. Then the film was hydrated and suspended in DPBS by vortex to obtain a clear solution of PTX/PEG-Fmoc2 mixed nanomicelles. Any non-entrapped drug was removed by filtration through 220 nm PVDF syringe filter.
as §4

The subject of another series is rat red blood cells. The experiment in a line: Hemolysis assay. It counts as cell-based. Particulars: 2 hrs at 37° C., 5 mM. As to the method:
We also examined the hemolytic activity of plain micelles prepared from PEG-lipid and lipopeptide conjugates on rat red blood cells and compared the results to two widely used ethoxylated nonionic surfactants: Triton X-100 and Tween 80. In the studies of FIG. 6, rat red blood cells (1%) were incubated with surfactants at indicated concentrations for 2 hrs at 37° C. After such incubation, supernatants were carefully withdrawn, measured for at OD540 nm, and calculated based on OD value under a condition that total hemolysis occurred.
1(j). Hemolysis assay. Rat red blood cells (RBCs) were isolated from freshly collected rat blood with added anticoagulant by washing three times with 10 volumes of cold PBS (1500 rpm for 10 min). RBCs were then diluted to 2% w/v with ice cold DPBS and utilized immediately for the hemolysis assay. One mL of diluted RBC suspension was treated with various concentrations (0-5 mM) of PEG-lipopeptides, Tween 80, and Triton X-100, respectively, and then incubated at 37° C. in an incubator shaker for 2 h. The samples were centrifuged at 1500 rpm for 10 min at 4° C., and 100 μL of supernatant from each sample was transferred into a 96-well plate. The release of hemoglobin was determined by the absorbance at 540 nm using a micro-plate reader. […] Hemoglobin release was calculated as (ODsample−ODnegative control)/(ODpositive control−ODnegative control)×100%.

Series [9] is described as follows: Micelle-facilitated solubilization of JP4-039. The class given is physicochemical. The following applies: at comparable molar ratios.
Method: In the solubilization studies of FIG. 4, various amounts of tetra chain PEG5,000-lysyl-[lysyl-(α-Fmoc-ε-oleyol-lysine)2]2 were mixed with JP4-039 in CHCl3 followed by solvent evaporation, the drug-loaded micelles were prepared by hydration in saline. The amounts of solubilized JP4-030 were determined by OD448 measurements from supernatant.
Lipopeptides, amino acid derivatives or nitroxide compounds were first dissolved in chloroform. The solutions were aliquoted to a glass test tube, mixed well, then blown with a constant nitrogen stream to remove the bulk of the solvent. The residual solvent was removed by applying high vacuum for 2 hrs. To determine micelle-facilitated solubilization of JP4-039, various molar ratios of surfactant to drug were applied to make surfactant-drug mixture in water (final concentration of JP4-039 was 5 mg/mL). After at least 30 minutes, the samples were briefly centrifuged at 13,000 rpm. One half of the supernatants was recovered, to which an equal volume of ethanol was added to dissolve/disrupt micelle drug complexes. The amounts of drug in the samples were quantitated using OD448 nm.

On to `O=C(O[C@@H]1Cc2c(O)cc(O)cc2O[C@@H]1c1cc(O)c(O)c(O)c1)c1cc(O)c(O)c(O)c1` [EGCG, epigallocatechin gallate], for which the solubility result in series [1] (tested agent itself, Table 1) was “freely”. Besides, the Soluble at in series [1] (with multi-chain PEGylated micelle-forming surfactant) was determined as 5 mg/mL. In addition, the Oxidation on storage entry in series [2] is “readily oxidized”. In addition, in [3], the “Size +/− SD” value is listed as 89.9 +/− 12 nm.
As to “PEG5K-lysyl-(α-Fmoc-ε-t-Boc-lysine)2 [PEG-Fmoc]”, the “Cytotoxicity (tumor cell inhibition)” value in [4], in series [5] and in series [7] was “did not show apparent toxicity” each time. For the same compound, the CMC in [6] stood at 5.244 µM. For the same compound, the “Micelle size in aqueous solution” value in [8] (carrier alone) is 25˜30 nm. The compound further had a PDI in series [8] (drug-free carrier 5 mg/mL) of 0.488. The Particle size in [8] (drug-free carrier 5 mg/mL) is on record as 28.55 ± 0.27 nm.
Consider Triton X-100, for which, in the series with rat red blood cells, the Hemolysis worked out at 100%.
“methoxy PEG2,000-carbamoyl-1-palmitoyl-2-oleoyl-sn-glycero-3-phosphotidylethanolamine [compound 8]”: the “Activity in forming a stable JP4-039-containing micelle solution” value in [9] is “inactive”.
